Results taken from patent US6355799B1, “Substituted benzene compounds, process for their preparation, and herbicidal and defoliant compositions containing them” (ISK Americas Incorporated, priority 1997, dated 2002).

Assays:
Type in all cases: in vivo
[1] = system: soybean (Glycine max L., var. Pella 86, SOY); assay: Post-emerge test, crop safety; details: 14 days after application, rating scale 0-100
Method in brief: (§1)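 Fourteen days after spraying, crop and weed injury was graded visually from 0, no effect, to 100, every plant dead. Test substances were dissolved in acetone and applied at 15–1000 g ai/ha with a flat-fan nozzle. Application was either pre-emergence, one day after sowing, or post-emergence at the 2–3 leaf stage.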

[2] = system: field corn (Zea mays L., var. Dekalb 535, CORN); assay: Post-emerge test, crop safety; details: post-emerge, 14 days after application, rating scale 0-100
Method in brief: as §1

[3] = system: upland rice (Oryza sp., var. Tebonnet, RICE); assay: Post-emerge test, crop safety; details: post-emerge, 14 days after application, rating scale 0-100
Method in brief: as §1

[4] = system: common ragweed (Ambrosia artemisizfolia L., AMBEL); assay: Post-emerge test, greenhouse herbicide activity screening; details: 14 days after application; for phytotoxicity rating AMBEL: post-emerge, rating scale 0-100; for Post-emerge Herbicidal Activity AMBEL: phytotoxicity rating 0-100 (0 no damage, 100 complete death)
Method in brief: (§2)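 Rating: 0–100 visual injury, 14 DAA. Application: acetone, 187 l/ha, 15–1000 g ai/ha, flat-fan track sprayer with nozzle 40–45 cm above soil or canopy. Post-emerge runs used 0.25% v/v surfactant on 2–3 leaf plants.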

[5] = system: green foxtail (Setaria viridis, SETVI); assay: Pre-emerge test, greenhouse herbicide activity screening; details: for pest or weed control at 63 g/ha / pest or weed control at 250 g/ha: Setaria viridis, pre-emergence, 336 h, phytotoxicity rating 0-100, 14 days after application, read-out: Pre-emerge Herbicidal Activity SETVI; for Pre-emerge Herbicidal Activity SETVI (phytotoxicity rating, scale 0-100): rated 14 days after application, 0 = no damage, 100 = complete death
Method in brief: as §1

[6] = system: johnsongrass (Sorghum halepense, SORHA); assay: as above; details: for pest or weed control at 63 g/ha / pest or weed control at 250 g/ha: Sorghum halepense, pre-emergence, 336 h, phytotoxicity rating 0-100, 14 days after application, read-out: Pre-emerge Herbicidal Activity SORHA; for Pre-emerge Herbicidal Activity SORHA (phytotoxicity rating, scale 0-100): rated 14 days after application, 0 = no damage, 100 = complete death
Method in brief: as §1

[7] = system: large crabgrass (Digitaria sanguinalis, DIGSA); assay: as above; details: for pest or weed control at 63 g/ha / pest or weed control at 250 g/ha: Digitaria sanguinalis, pre-emergence, 336 h, phytotoxicity rating 0-100, 14 days after application, read-out: Pre-emerge Herbicidal Activity DIGSA; for Pre-emerge Herbicidal Activity DIGSA (phytotoxicity rating, scale 0-100): rated 14 days after application, 0 = no damage, 100 = complete death
Method in brief: as §1

[8] = system: lambsquarters (Chenopodium album, CHEAL); assay: as above; details: for pest or weed control at 63 g/ha / pest or weed control at 250 g/ha: Chenopodium album, pre-emergence, 336 h, phytotoxicity rating 0-100, 14 days after application, read-out: Pre-emerge Herbicidal Activity CHEAL; for Pre-emerge Herbicidal Activity CHEAL (phytotoxicity rating, scale 0-100): rated 14 days after application, 0 = no damage, 100 = complete death
Method in brief: as §1

[9] = system: barnyardgrass (Echinochloa crus-galli, ECHCG); assay: as above; details: for pest or weed control at 63 g/ha / pest or weed control at 250 g/ha: Echinochloa crus-galli, pre-emergence, 336 h, phytotoxicity rating 0-100, 14 days after application, read-out: Pre-emerge Herbicidal Activity ECHCG; for Pre-emerge Herbicidal Activity ECHCG (phytotoxicity rating, scale 0-100): rated 14 days after application, 0 = no damage, 100 = complete death
Method in brief: as §1

[10] = system: ivyleaf morningglory (Ipomoea hederacea, IPOHE); assay: as above; details: for pest or weed control at 63 g/ha / pest or weed control at 250 g/ha: Ipomoea, pre-emergence, 336 h, phytotoxicity rating 0-100, 14 days after application, read-out: Pre-emerge Herbicidal Activity IPOHE; for Pre-emerge Herbicidal Activity IPOHE (phytotoxicity rating, scale 0-100): rated 14 days after application, 0 = no damage, 100 = complete death
Method in brief: as §1

[11] = system: velvetleaf (Abutilon theophrasti, ABUTH); assay: as above; details: for pest or weed control at 63 g/ha / pest or weed control at 250 g/ha: Abutilon theophrasti, pre-emergence, 336 h, phytotoxicity rating 0-100, 14 days after application, read-out: Pre-emerge Herbicidal Activity ABUTH; for Pre-emerge Herbicidal Activity ABUTH (phytotoxicity rating, scale 0-100): rated 14 days after application, 0 = no damage, 100 = complete death
Method in brief: as §1

[12] = system: soybean (Glycine max L., var. Pella 86, SOY); assay: Pre-emerge test, crop safety; details: crop damage rating 0-100, 14 days after application
Method in brief: as §2

[13] = system: field corn (Zea mays L., var. Dekalb 535, CORN); assay: Pre-emerge test, crop safety; details: crop damage rating 0-100, 14 days after application
Method in brief: as §2

[14] = system: upland rice (Oryza sp., var. Tebonnet, RICE); assay: Pre-emerge test, crop safety; details: crop damage rating 0-100, 14 days after application
Method in brief: as §2

[15] = system: common ragweed (Ambrosia artemisizfolia L., AMBEL); assay: Pre-emerge test, greenhouse herbicide activity screening; details: for Pre-emerge Herbicidal Activity AMBEL: phytotoxicity rating 0-100, 14 days after application; for Pre-emerge Herbicidal Activity AMBEL (phytotoxicity rating, scale 0-100): rated 14 days after application, 0 = no damage, 100 = complete death
Method in brief: as §1

SMILES: COC(=O)Nc1c(OC)c(Cl)cc(F)c1-n1c(=O)cc(C(F)(F)F)n(C)c1=O [Compound 4-1, 3-(4chloro-6-fluoro-3-methoxy-2-methoxycarbonylaminophenyl)-1-methyl-6-trifluoromethyl-2,4(1H, 3H)-pyrimidinedione]
- phytotoxicity rating SOY (crop damage) ([1]; 63 g ai/ha): 50
- phytotoxicity rating SOY (crop damage) ([1]; 250 g ai/ha): 100
- phytotoxicity rating CORN (crop damage) ([2]; 63 g ai/ha): 10
- phytotoxicity rating CORN (crop damage) ([2]; 250 g ai/ha): 20
- phytotoxicity rating RICE (crop damage) ([3]; 63 g ai/ha): 20
- phytotoxicity rating RICE (crop damage) ([3]; 250 g ai/ha): 50
- phytotoxicity rating AMBEL ([4]; 63 g ai/ha): 40
- phytotoxicity rating AMBEL ([4]; 250 g ai/ha): 90
- pest or weed control at 63 g/ha ([5]; 63 g ai/ha): 100%
- pest or weed control at 250 g/ha ([5]; 250 g ai/ha): 100%
- pest or weed control at 63 g/ha ([6]; 63 g ai/ha): 60%
- pest or weed control at 250 g/ha ([6]; 250 g ai/ha): 100%
- pest or weed control at 63 g/ha ([7]; 63 g ai/ha): 60%
- pest or weed control at 250 g/ha ([7]; 250 g ai/ha): 100%
- pest or weed control at 63 g/ha ([8]; 63 g ai/ha): 100%
- pest or weed control at 250 g/ha ([8]; 250 g ai/ha): 100%
- pest or weed control at 63 g/ha ([9]; 63 g ai/ha): 10%
- pest or weed control at 250 g/ha ([9]; 250 g ai/ha): 100%
- pest or weed control at 63 g/ha ([10]; 63 g ai/ha): 100%
- pest or weed control at 250 g/ha ([10]; 250 g ai/ha): 100%
- pest or weed control at 63 g/ha ([11]; 63 g ai/ha): 100%
- pest or weed control at 250 g/ha ([11]; 250 g ai/ha): 100%
- Pre-emerge Herbicidal Activity SOY ([12]; 63 g ai/ha): 70
- Pre-emerge Herbicidal Activity SOY ([12]; 250 g ai/ha): 100
- Pre-emerge Herbicidal Activity CORN ([13]; 63 g ai/ha): 10
- Pre-emerge Herbicidal Activity CORN ([13]; 250 g ai/ha): 80
- Pre-emerge Herbicidal Activity RICE ([14]; 63 g ai/ha): 50
- Pre-emerge Herbicidal Activity RICE ([14]; 250 g ai/ha): 95

SMILES: CNC(=O)N(C(=O)NC)c1c(OC)c(Cl)cc(F)c1-n1c(=O)cc(C(F)(F)F)n(C)c1=O [Compound 3-1, 3-[2-bis(methylaminocarbonyl)amino-4-chloro-6-fluoro-3-methoxyphenyl]-1-methyl-6-trifluoromethyl-2,4(1H, 3H)-pyrimidinedione]
- phytotoxicity rating AMBEL ([4]; 63 g ai/ha): 0
- phytotoxicity rating AMBEL ([4]; 250 g ai/ha): 0
- pest or weed control at 63 g/ha ([5]; 63 g ai/ha): 0%
- pest or weed control at 250 g/ha ([5]; 250 g ai/ha): 0%
- pest or weed control at 63 g/ha ([6]; 63 g ai/ha): 0%
- pest or weed control at 250 g/ha ([6]; 250 g ai/ha): 0%
- Pre-emerge Herbicidal Activity AMBEL ([15]; 63 g ai/ha): 0
- Pre-emerge Herbicidal Activity AMBEL ([15]; 250 g ai/ha): 0
- pest or weed control at 63 g/ha ([7]; 63 g ai/ha): 0%
- pest or weed control at 250 g/ha ([7]; 250 g ai/ha): 0%
- pest or weed control at 63 g/ha ([8]; 63 g ai/ha): 20%
- pest or weed control at 250 g/ha ([8]; 250 g ai/ha): 80%
- pest or weed control at 63 g/ha ([9]; 63 g ai/ha): 0%
- pest or weed control at 250 g/ha ([9]; 250 g ai/ha): 0%
- pest or weed control at 63 g/ha ([10]; 63 g ai/ha): 0%
- pest or weed control at 250 g/ha ([10]; 250 g ai/ha): 0%
- pest or weed control at 63 g/ha ([11]; 63 g ai/ha): 0%
- pest or weed control at 250 g/ha ([11]; 250 g ai/ha): 20%

SMILES: Cn1c(C(F)(F)F)cc(=O)n(-c2c(F)cc(Cl)c(O)c2N)c1=O [Compound 1-16, 3-(2-amino-4-chloro-6-fluoro-3-hydroxyphenyl)-1-methyl-6-trifluoromethyl-2,4(1H, 3H)-pyrimidinedione]
- Post-emerge Herbicidal Activity AMBEL ([4]; 63 g ai/ha): 0
- Post-emerge Herbicidal Activity AMBEL ([4]; 250 g ai/ha): 0
- Pre-emerge Herbicidal Activity SETVI (phytotoxicity rating, scale 0-100) ([5]; 63 g ai/ha): 0
- Pre-emerge Herbicidal Activity SETVI (phytotoxicity rating, scale 0-100) ([5]; 250 g ai/ha): 0
- Pre-emerge Herbicidal Activity SORHA (phytotoxicity rating, scale 0-100) ([6]; 63 g ai/ha): 0
- Pre-emerge Herbicidal Activity SORHA (phytotoxicity rating, scale 0-100) ([6]; 250 g ai/ha): 0
- Pre-emerge Herbicidal Activity AMBEL (phytotoxicity rating, scale 0-100) ([15]; 63 g ai/ha): 0
- Pre-emerge Herbicidal Activity AMBEL (phytotoxicity rating, scale 0-100) ([15]; 250 g ai/ha): 0
- Pre-emerge Herbicidal Activity DIGSA (phytotoxicity rating, scale 0-100) ([7]; 63 g ai/ha): 0
- Pre-emerge Herbicidal Activity DIGSA (phytotoxicity rating, scale 0-100) ([7]; 250 g ai/ha): 0
- Pre-emerge Herbicidal Activity CHEAL (phytotoxicity rating, scale 0-100) ([8]; 63 g ai/ha): 0
- Pre-emerge Herbicidal Activity CHEAL (phytotoxicity rating, scale 0-100) ([8]; 250 g ai/ha): 70
- Pre-emerge Herbicidal Activity ECHCG (phytotoxicity rating, scale 0-100) ([9]; 63 g ai/ha): 0
- Pre-emerge Herbicidal Activity ECHCG (phytotoxicity rating, scale 0-100) ([9]; 250 g ai/ha): 0
- Pre-emerge Herbicidal Activity IPOHE (phytotoxicity rating, scale 0-100) ([10]; 63 g ai/ha): 0
- Pre-emerge Herbicidal Activity IPOHE (phytotoxicity rating, scale 0-100) ([10]; 250 g ai/ha): 0
- Pre-emerge Herbicidal Activity ABUTH (phytotoxicity rating, scale 0-100) ([11]; 63 g ai/ha): 0
- Pre-emerge Herbicidal Activity ABUTH (phytotoxicity rating, scale 0-100) ([11]; 250 g ai/ha): 0

SMILES: COc1c(Cl)cc(F)c(-n2c(=O)cc(C(F)(F)F)n(C)c2=O)c1N(C(C)=O)C(C)=O [Compound 2-2, 3-(4-chloro-2-diacetylamino-6-fluoro-3-methoxyphenyl)-1-methyl-6-trifluoromethyl-2,4(1H, 3H)-pyrimidinedione]
- Post-emerge Herbicidal Activity AMBEL ([4]; 63 g ai/ha): 0
- Post-emerge Herbicidal Activity AMBEL ([4]; 250 g ai/ha): 70
- Pre-emerge Herbicidal Activity SETVI (phytotoxicity rating, scale 0-100) ([5]; 63 g ai/ha): 90
- Pre-emerge Herbicidal Activity SETVI (phytotoxicity rating, scale 0-100) ([5]; 250 g ai/ha): 100
- Pre-emerge Herbicidal Activity SORHA (phytotoxicity rating, scale 0-100) ([6]; 63 g ai/ha): 60
- Pre-emerge Herbicidal Activity SORHA (phytotoxicity rating, scale 0-100) ([6]; 250 g ai/ha): 90
- Pre-emerge Herbicidal Activity AMBEL (phytotoxicity rating, scale 0-100) ([15]; 63 g ai/ha): 40
- Pre-emerge Herbicidal Activity AMBEL (phytotoxicity rating, scale 0-100) ([15]; 250 g ai/ha): 100
- Pre-emerge Herbicidal Activity DIGSA (phytotoxicity rating, scale 0-100) ([7]; 63 g ai/ha): 90
- Pre-emerge Herbicidal Activity DIGSA (phytotoxicity rating, scale 0-100) ([7]; 250 g ai/ha): 95
- Pre-emerge Herbicidal Activity CHEAL (phytotoxicity rating, scale 0-100) ([8]; 63 g ai/ha): 100
- Pre-emerge Herbicidal Activity CHEAL (phytotoxicity rating, scale 0-100) ([8]; 250 g ai/ha): 100
- Pre-emerge Herbicidal Activity ECHCG (phytotoxicity rating, scale 0-100) ([9]; 63 g ai/ha): 30
- Pre-emerge Herbicidal Activity ECHCG (phytotoxicity rating, scale 0-100) ([9]; 250 g ai/ha): 90
- Pre-emerge Herbicidal Activity IPOHE (phytotoxicity rating, scale 0-100) ([10]; 63 g ai/ha): 90
- Pre-emerge Herbicidal Activity IPOHE (phytotoxicity rating, scale 0-100) ([10]; 250 g ai/ha): 100
- Pre-emerge Herbicidal Activity ABUTH (phytotoxicity rating, scale 0-100) ([11]; 63 g ai/ha): 100
- Pre-emerge Herbicidal Activity ABUTH (phytotoxicity rating, scale 0-100) ([11]; 250 g ai/ha): 100
